Results reported in ChEMBL document CHEMBL5724806, “Unraveling interindividual differences and functional consequences of gut microbial metabolism of immunosuppressants” (2024).

Experiments:
Assay type in all cases: ADME
[1] = (§1) The drug is tested on Bifidobacterium longum strain: DSM20088 for biotransformation under microaerobic condition. The drug concentrations were measured over 6 timepoints collected between 0 and 12 hours of incubation by liquid-chromatography-coupled mass spectrometry (LC–MS); parameters: dose 5 uM, timepoint 0, 1.5, 3, 6, 9, 12 hours; details: 5 µM
[2] = (§2) The drug is tested on Bacteroides thetaiotaomicron strain: DSM2079 for biotransformation under anaerobic condition. The drug concentrations were measured over 6 timepoints collected between 0 and 12 hours of incubation by liquid-chromatography-coupled mass spectrometry (LC–MS); parameters: dose 5 uM, timepoint 0, 1.5, 3, 6, 9, 12 hours; details: 5 µM
[3] = The drug is tested on Lactobacillus ruminis strain: ATCC25644 for biotransformation under anaerobic condition. The drug concentrations were measured over 6 timepoints collected between 0 and 12 hours of incubation by liquid-chromatography-coupled mass spectrometry (LC–MS); parameters: dose 5 uM, timepoint 0, 1.5, 3, 6, 9, 12 hours; details: ligilactobacillus ruminis, 5 µM
[4] = The drug is tested on Gemella morbillorum strain: DSM20572 for biotransformation under microaerobic condition. The drug concentrations were measured over 6 timepoints collected between 0 and 12 hours of incubation by liquid-chromatography-coupled mass spectrometry (LC–MS); parameters: dose 5 uM, timepoint 0, 1.5, 3, 6, 9, 12 hours; details: 5 µM
[5] = as §1, with “the gut metagenome community of T-02 with ENA study accession number: PRJEB31790” for “Bifidobacterium longum strain: DSM20088”, “7” for “6”; parameters: dose 5 uM, timepoint 0, 0.75, 1.5, 3, 6, 9, 12 hours; details: 5 µM
[6] = The drug is tested on Enterococcus faecalis strain: ATCC29212 for biotransformation under microaerobic condition. The drug concentrations were measured over 6 timepoints collected between 0 and 12 hours of incubation by liquid-chromatography-coupled mass spectrometry (LC–MS); parameters: dose 5 uM, timepoint 0, 1.5, 3, 6, 9, 12 hours; details: 5 µM
[7] = as §2, with “the gut metagenome community of P-04 with ENA study accession number: PRJEB31790” for “Bacteroides thetaiotaomicron strain: DSM2079”, “7” for “6”; parameters: dose 5 uM, timepoint 0, 0.75, 1.5, 3, 6, 9, 12 hours; details: 5 µM
[8] = The drug is tested on Actinomyces naeslundi strain: DSM43013 for biotransformation under microaerobic condition. The drug concentrations were measured over 6 timepoints collected between 0 and 12 hours of incubation by liquid-chromatography-coupled mass spectrometry (LC–MS); parameters: dose 5 uM, timepoint 0, 1.5, 3, 6, 9, 12 hours; details: actinomyces naeslundii, 5 µM
[9] = The drug is tested on Faecalibacterium prausnitzii strain: DSM17677 for biotransformation under anaerobic condition. The drug concentrations were measured over 6 timepoints collected between 0 and 12 hours of incubation by liquid-chromatography-coupled mass spectrometry (LC–MS); parameters: dose 5 uM, timepoint 0, 1.5, 3, 6, 9, 12 hours; details: faecalibacterium duncaniae, 5 µM
[10] = The drug is tested on Capnocytophaga ochracea strain: DSM7271 for biotransformation under anaerobic condition. The drug concentrations were measured over 6 timepoints collected between 0 and 12 hours of incubation by liquid-chromatography-coupled mass spectrometry (LC–MS); parameters: dose 5 uM, timepoint 0, 1.5, 3, 6, 9, 12 hours; details: 5 µM
[11] = as §1, with “the gut metagenome community of A-08 with ENA study accession number: PRJEB31790” for “Bifidobacterium longum strain: DSM20088”, “7” for “6”; parameters: dose 5 uM, timepoint 0, 0.75, 1.5, 3, 6, 9, 12 hours; details: 5 µM
[12] = as §1, with “the gut metagenome community of A-04 with ENA study accession number: PRJEB31790” for “Bifidobacterium longum strain: DSM20088”, “7” for “6”; parameters: dose 5 uM, timepoint 0, 0.75, 1.5, 3, 6, 9, 12 hours; details: 5 µM
[13] = as §1, with “the gut metagenome community of T-03 with ENA study accession number: PRJEB31790” for “Bifidobacterium longum strain: DSM20088”, “7” for “6”; parameters: dose 5 uM, timepoint 0, 0.75, 1.5, 3, 6, 9, 12 hours; details: 5 µM
[14] = The drug is tested on Streptococcus sanguinis strain: DSM20567 for biotransformation under microaerobic condition. The drug concentrations were measured over 6 timepoints collected between 0 and 12 hours of incubation by liquid-chromatography-coupled mass spectrometry (LC–MS); parameters: dose 5 uM, timepoint 0, 1.5, 3, 6, 9, 12 hours; details: 5 µM
[15] = as §2, with “the gut metagenome community of A-09 with ENA study accession number: PRJEB31790” for “Bacteroides thetaiotaomicron strain: DSM2079”, “7” for “6”; parameters: dose 5 uM, timepoint 0, 0.75, 1.5, 3, 6, 9, 12 hours; details: 5 µM
[16] = The drug is tested on Parabacteroides distasonis strain: DSM20701 for biotransformation under anaerobic condition. The drug concentrations were measured over 6 timepoints collected between 0 and 12 hours of incubation by liquid-chromatography-coupled mass spectrometry (LC–MS); parameters: dose 5 uM, timepoint 0, 1.5, 3, 6, 9, 12 hours; details: 5 µM
[17] = as §2, with “the gut metagenome community of A-10 with ENA study accession number: PRJEB31790” for “Bacteroides thetaiotaomicron strain: DSM2079”, “7” for “6”; parameters: dose 5 uM, timepoint 0, 0.75, 1.5, 3, 6, 9, 12 hours; details: 5 µM
[18] = The drug is tested on Enterococcus faecalis strain: ATCC29212 for biotransformation under anaerobic condition. The drug concentrations were measured over 6 timepoints collected between 0 and 12 hours of incubation by liquid-chromatography-coupled mass spectrometry (LC–MS); parameters: dose 5 uM, timepoint 0, 1.5, 3, 6, 9, 12 hours; details: 5 µM
[19] = The drug is tested on Prevotella copri strain: DSM18205 for biotransformation under anaerobic condition. The drug concentrations were measured over 6 timepoints collected between 0 and 12 hours of incubation by liquid-chromatography-coupled mass spectrometry (LC–MS); parameters: dose 5 uM, timepoint 0, 1.5, 3, 6, 9, 12 hours; details: segatella copri, 5 µM
[20] = The drug is tested on Lactobacillus gasseri strain: DSM20243 for biotransformation under microaerobic condition. The drug concentrations were measured over 6 timepoints collected between 0 and 12 hours of incubation by liquid-chromatography-coupled mass spectrometry (LC–MS); parameters: dose 5 uM, timepoint 0, 1.5, 3, 6, 9, 12 hours; details: 5 µM
[21] = The drug is tested on Parabacteroides merdae strain: DSM19495 for biotransformation under anaerobic condition. The drug concentrations were measured over 6 timepoints collected between 0 and 12 hours of incubation by liquid-chromatography-coupled mass spectrometry (LC–MS); parameters: dose 5 uM, timepoint 0, 1.5, 3, 6, 9, 12 hours; details: 5 µM
[22] = as §2, with “the gut metagenome community of A-03 with ENA study accession number: PRJEB31790” for “Bacteroides thetaiotaomicron strain: DSM2079”, “7” for “6”; parameters: dose 5 uM, timepoint 0, 0.75, 1.5, 3, 6, 9, 12 hours; details: 5 µM
[23] = The drug is tested on Bifidobacterium adolescentis strain: DSM20083 for biotransformation under anaerobic condition. The drug concentrations were measured over 6 timepoints collected between 0 and 12 hours of incubation by liquid-chromatography-coupled mass spectrometry (LC–MS); parameters: dose 5 uM, timepoint 0, 1.5, 3, 6, 9, 12 hours; details: 5 µM
[24] = as §1, with “the gut metagenome community of A-10 with ENA study accession number: PRJEB31790” for “Bifidobacterium longum strain: DSM20088”, “7” for “6”; parameters: dose 5 uM, timepoint 0, 0.75, 1.5, 3, 6, 9, 12 hours; details: 5 µM
[25] = The drug is tested on Streptococcus anginosus strain: DSM20563 for biotransformation under anaerobic condition. The drug concentrations were measured over 6 timepoints collected between 0 and 12 hours of incubation by liquid-chromatography-coupled mass spectrometry (LC–MS); parameters: dose 5 uM, timepoint 0, 1.5, 3, 6, 9, 12 hours; details: 5 µM
[26] = The drug is tested on Capnocytophaga ochracea strain: DSM7271 for biotransformation under microaerobic condition. The drug concentrations were measured over 6 timepoints collected between 0 and 12 hours of incubation by liquid-chromatography-coupled mass spectrometry (LC–MS); parameters: dose 5 uM, timepoint 0, 1.5, 3, 6, 9, 12 hours; details: 5 µM
[27] = The drug is tested on Roseburia intestinalis strain: DSM14610 for biotransformation under anaerobic condition. The drug concentrations were measured over 6 timepoints collected between 0 and 12 hours of incubation by liquid-chromatography-coupled mass spectrometry (LC–MS); parameters: dose 5 uM, timepoint 0, 1.5, 3, 6, 9, 12 hours; details: 5 µM
[28] = as §2, with “the gut metagenome community of P-01 with ENA study accession number: PRJEB31790” for “Bacteroides thetaiotaomicron strain: DSM2079”, “7” for “6”; parameters: dose 5 uM, timepoint 0, 0.75, 1.5, 3, 6, 9, 12 hours; details: 5 µM
[29] = The drug is tested on Bacteroides stercoris strain: HM 1036 for biotransformation under anaerobic condition. The drug concentrations were measured over 6 timepoints collected between 0 and 12 hours of incubation by liquid-chromatography-coupled mass spectrometry (LC–MS); parameters: dose 5 uM, timepoint 0, 1.5, 3, 6, 9, 12 hours; details: 5 µM
[30] = as §2, with “the gut metagenome community of A-05 with ENA study accession number: PRJEB31790” for “Bacteroides thetaiotaomicron strain: DSM2079”, “7” for “6”; parameters: dose 5 uM, timepoint 0, 0.75, 1.5, 3, 6, 9, 12 hours; details: 5 µM

| Bacterial Biotransformation [1] | Bacterial Biotransformation [2] | Bacterial Biotransformation [3] | Bacterial Biotransformation [4] | Bacterial Biotransformation [5] | Bacterial Biotransformation [6] | Bacterial Biotransformation [7] | Bacterial Biotransformation [8] | Bacterial Biotransformation [9] | Bacterial Biotransformation [10] | Bacterial Biotransformation [11] | Bacterial Biotransformation [12] | Bacterial Biotransformation [13] | Bacterial Biotransformation [14] | Bacterial Biotransformation [15] | Bacterial Biotransformation [16] | Bacterial Biotransformation [17] | Bacterial Biotransformation [18] | Bacterial Biotransformation [19] | Bacterial Biotransformation [20] | SMILES | other results |
| --- | --- | --- | --- | --- | --- | --- | --- | --- | --- | --- | --- | --- | --- | --- | --- | --- | --- | --- | --- | --- | --- |
| Compound NOT metabolized | Compound NOT metabolized | Compound NOT metabolized | Compound NOT metabolized | Compound metabolized | Compound NOT metabolized | Compound metabolized | Compound NOT metabolized | Compound NOT metabolized | Compound NOT metabolized | Compound metabolized | Compound metabolized | Compound NOT metabolized | Compound NOT metabolized | Compound metabolized | Compound NOT metabolized | Compound metabolized | Compound NOT metabolized | Compound NOT metabolized | Compound NOT metabolized | C[C@]12CCC(=O)C=C1CC[C@@H]1[C@@H]2C(=O)C[C@@]2(C)[C@H]1CC[C@]2(O)C(=O)CO [CORTISONE] | Bacterial Biotransformation [21]: Compound NOT metabolized; Bacterial Biotransformation [22]: Compound metabolized; Bacterial Biotransformation [23]: Compound NOT metabolized; Bacterial Biotransformation [24]: Compound metabolized; Bacterial Biotransformation [25]: Compound NOT metabolized; Bacterial Biotransformation [26]: Compound NOT metabolized; Bacterial Biotransformation [27]: Compound NOT metabolized; Bacterial Biotransformation [28]: Compound metabolized; Bacterial Biotransformation [29]: Compound NOT metabolized; Bacterial Biotransformation [30]: Compound metabolized |
| Compound NOT metabolized | Compound NOT metabolized | Compound NOT metabolized | Compound NOT metabolized | Compound metabolized | Compound NOT metabolized | Compound NOT metabolized | Compound NOT metabolized | Compound NOT metabolized | Compound NOT metabolized | Compound metabolized | Compound metabolized | Compound NOT metabolized | Compound NOT metabolized | Compound metabolized | Compound NOT metabolized | Compound NOT metabolized | Compound NOT metabolized | Compound NOT metabolized | Compound NOT metabolized | C[C@H]1C[C@H]2[C@@H]3CCC4=CC(=O)C=C[C@]4(C)[C@@]3(F)[C@@H](O)C[C@]2(C)[C@@]1(O)C(=O)CO [BETAMETHASONE] | Bacterial Biotransformation [21]: Compound NOT metabolized; Bacterial Biotransformation [22]: Compound metabolized; Bacterial Biotransformation [23]: Compound NOT metabolized; Bacterial Biotransformation [24]: Compound NOT metabolized; Bacterial Biotransformation [25]: Compound NOT metabolized; Bacterial Biotransformation [26]: Compound NOT metabolized; Bacterial Biotransformation [27]: Compound NOT metabolized; Bacterial Biotransformation [28]: Compound NOT metabolized; Bacterial Biotransformation [29]: Compound NOT metabolized; Bacterial Biotransformation [30]: Compound NOT metabolized |

| SMILES | Bacterial Biotransformation [1] | Bacterial Biotransformation [2] | Bacterial Biotransformation [3] | Bacterial Biotransformation [4] | Bacterial Biotransformation [5] | Bacterial Biotransformation [6] | Bacterial Biotransformation [7] | Bacterial Biotransformation [8] | Bacterial Biotransformation [9] | Bacterial Biotransformation [10] | Bacterial Biotransformation [11] | Bacterial Biotransformation [12] | Bacterial Biotransformation [13] | Bacterial Biotransformation [14] | Bacterial Biotransformation [15] | Bacterial Biotransformation [16] | Bacterial Biotransformation [17] | Bacterial Biotransformation [18] | Bacterial Biotransformation [19] | Bacterial Biotransformation [20] | other results |
| --- | --- | --- | --- | --- | --- | --- | --- | --- | --- | --- | --- | --- | --- | --- | --- | --- | --- | --- | --- | --- | --- |
| CCOC(=O)C1=C(COCCN)NC(C)=C(C(=O)OC)C1c1ccccc1Cl (stereo not given) [AMLODIPINE] | Compound NOT metabolized | Compound NOT metabolized | Compound NOT metabolized | Compound NOT metabolized | Compound NOT metabolized | Compound metabolized | Compound NOT metabolized | Compound NOT metabolized | Compound NOT metabolized | Compound NOT metabolized | Compound NOT metabolized | Compound NOT metabolized | Compound NOT metabolized | Compound NOT metabolized | Compound NOT metabolized | Compound NOT metabolized | Compound NOT metabolized | Compound NOT metabolized | Compound NOT metabolized | Compound NOT metabolized | Bacterial Biotransformation [21]: Compound NOT metabolized; Bacterial Biotransformation [22]: Compound NOT metabolized; Bacterial Biotransformation [23]: Compound NOT metabolized; Bacterial Biotransformation [24]: Compound NOT metabolized; Bacterial Biotransformation [25]: Compound NOT metabolized; Bacterial Biotransformation [26]: Compound NOT metabolized; Bacterial Biotransformation [27]: Compound NOT metabolized; Bacterial Biotransformation [28]: Compound NOT metabolized; Bacterial Biotransformation [29]: Compound NOT metabolized; Bacterial Biotransformation [30]: Compound NOT metabolized |
